The structures appear in SMILES notation. pIC50: −log10 of the molar value.

In one assay the target is T1, RORc ligand binding domain (Homo sapiens, UniProt P51449).
T1 construct: host or cells: E. coli
T1 sequence (P51449 269-508 limits assumed): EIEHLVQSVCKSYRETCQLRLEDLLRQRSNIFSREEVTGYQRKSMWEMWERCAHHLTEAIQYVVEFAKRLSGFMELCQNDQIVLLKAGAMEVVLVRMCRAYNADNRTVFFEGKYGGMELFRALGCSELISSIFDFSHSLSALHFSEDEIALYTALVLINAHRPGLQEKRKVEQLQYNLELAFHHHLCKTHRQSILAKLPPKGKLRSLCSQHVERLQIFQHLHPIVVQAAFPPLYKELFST
The assay can be described thus: In Vitro RORc Ligand Binding Assay (25-[3H]hydroxycholesterol radioligand filtration). As to conditions: In Vitro RORc Ligand Binding Assay; Table 4; read-out: RORc IC50.
`CC(=O)N1CCN(c2ccc(CN3CCCCC(c4ccccc4)S3(=O)=O)c(F)c2)CC1` (single isomer, unassigned) [Example 15, 1-{4-[4-(1,1-Dioxo-7-phenyl-[1,2]thiazepan-2-ylmethyl)-3-fluoro-phenyl]-piperazin-1-yl}-ethanone]: the pIC50 is 7.96. On the same count and under the same terms, with `CC(=O)N1CCN(c2ccc(CN3CC(C)CCC(c4ccccc4)S3(=O)=O)c(F)c2)CC1` (single isomer, unassigned) [Example 334, 1-{4-[3-Fluoro-4-(4-methyl-1,1-dioxo-7-phenyl-[1,2]thiazepan-2-ylmethyl)-phenyl]-piperazin-1-yl}-ethanone] the figure was 8.30; with `C[C@H]1CCC(c2ccccc2)S(=O)(=O)N1Cc1ccc(N2CCC3(CC2)COC3)cc1F` (single isomer, unassigned) [Example 99], 7.36; with `CCOC(=O)c1ncc2n1CCN(c1ccc(CN3[C@@H](C)CCC(c4ccccc4)S3(=O)=O)c(F)c1)C2` (stereo partly drawn) [Example 397, 7-[3-Fluoro-4-((3S)-methyl-1,1-dioxo-6-phenyl-[1,2]thiazinan-2-ylmethyl)-phenyl]-5,6,7,8-tetrahydro-imidazo[1,5-a]pyrazine-3-carboxylic acid ethyl ester], 6.06. The same measure, in the same setting: next, `CC(=O)N1CCN(c2ccc(CN3[C@@H](C)CCC(c4ccccc4C)S3(=O)=O)c(F)c2)CC1` (single isomer, unassigned) [Example 206]: 7.85. As to `N#CCC(=O)N1CCN(c2ccc(CN3CCCCC(c4ccccc4)S3(=O)=O)c(F)c2)CC1` (single isomer, unassigned) [Example 303, 3-{4-[4-(1,1-Dioxo-7-phenyl-[1,2]thiazepan-2-ylmethyl)-3-fluoro-phenyl]-piperazin-1-yl}-3-oxo-propionitrile], the pIC50 was 7.07. For the molecule `CC(=O)N1CCN(c2ccc(CN3CCCC(c4ccc(F)cc4)S3(=O)=O)c(F)c2)CC1` (single isomer, unassigned) [Example 11, 1-(4-{3-Fluoro-4-[6-(4-fluoro-phenyl)-1,1-dioxo-[1,2]thiazinan-2-ylmethyl]-phenyl}-piperazin-1-yl)-ethanone], the pIC50 was 6.90. With `CC(=O)N1CCN(c2ccc(CN3C4CCCC4CC(c4ccccc4)S3(=O)=O)c(F)c2)CC1` (single isomer, unassigned) [Example 250, 1-(4-(4-((2,2-dioxido-3-phenylhexahydro-cyclopenta[c][1,2]thiazin-1(3H)-yl)methyl)-3-fluorophenyl)piper-azin-1-yl)ethanone], the pIC50 is 7.96. Still for that read-out and setting: with `CS(=O)(=O)N1CCC(Oc2ccc(CN3CCCC(c4ccccc4)S3(=O)=O)c(F)c2)CC1` (single isomer, unassigned) [Example 55, 2-(2-fluoro-4-((1-(methylsulfonyl)piperidin-4-yl)oxy)benzyl)-6-phenyl-1,2-thiazinane 1,1-dioxide] the figure was 7.07; with `C[C@H]1CCC(c2ccccc2)S(=O)(=O)N1Cc1ccc(C(=O)N2CCCOCC2)cc1` (stereo partly drawn) [Example 282, [4-((3S)-Methyl-1,1-dioxo-6-phenyl-[1,2]thiazinan-2-ylmethyl)-phenyl]-[1,4]oxazepan-4-yl-methanone], 5.30. Take `C[C@H]1CCC(c2ccccc2)S(=O)(=O)N1Cc1ccc(C(=O)N2CC(c3nncn3C)C2)cc1` (stereo partly drawn) [Example 295, [4-((3S)-Methyl-1,1-dioxo-6-phenyl-[1,2]thiazinan-2-ylmethyl)-phenyl]-[3-(4-methyl-4H-[1,2,4]triazol-3-yl)-azetidin-1-yl]-methanone]: the pIC50 was 5.27. `C[C@H]1CCC(c2ccccc2)S(=O)(=O)N1Cc1ccc(C(=O)N2CC3(CCOC3)C2)cc1` (stereo partly drawn) [Example 372, [4-((3S)-Methyl-1,1-dioxo-6-phenyl-[1,2]thiazinan-2-ylmethyl)-phenyl]-(6-oxa-2-aza-spiro[3.4]oct-2-yl)-methanone]: the pIC50 is 5.52. In the case of `CC(=O)N1CCN(c2ccc(CN3[C@@H](C(C)C)CCC(c4ccccc4)S3(=O)=O)c(F)c2)CC1` (single isomer, unassigned) [Example 246], the pIC50 is 7.52. In the case of `C[C@@H]1CC(c2ccccc2)S(=O)(=O)N(Cc2ccc(NC3CCN(S(C)(=O)=O)CC3)cc2F)C1` (stereo partly drawn) [Example 227, [3-Fluoro-4-((4R)-methyl-1,1-dioxo-6-phenyl-[1,2]thiazinan-2-ylmethyl)-phenyl]-(1-methanesulfonyl-piperidin-4-yl)-amine], the pIC50 was 8.52. Consider `CC(=O)N1CCN(c2ccc(CN3CC(C)CCC(c4ccccc4)S3(=O)=O)c(F)c2)CC1` (single isomer, unassigned) [Example 338, 1-{4-[3-Fluoro-4-(4-methyl-1,1-dioxo-7-phenyl-[1,2]thiazepan-2-ylmethyl)-phenyl]-piperazin-1-yl}-ethanone], for which the pIC50 was 7.92. `C[C@H]1CCC(c2ccccc2)S(=O)(=O)N1Cc1ccc(N2CCC(c3ncno3)CC2)cc1F` (single isomer, unassigned) [Example 219]: the pIC50 was 7.38.

With `CC(=O)N1CCCN(c2ccc(CN3[C@@H](C)CCC(c4ccccc4)S3(=O)=O)c(F)c2)CC1` (single isomer, unassigned) [Example 81], the pIC50 was 6.93.

As for `CC(=O)N1CCN(c2ccc(CN3CCCC(c4ccc(F)cc4)S3(=O)=O)c(F)c2)CC1` (single isomer, unassigned) [Example 12, 1-(4-{3-Fluoro-4-[6-(4-fluoro-phenyl)-1,1-dioxo-[1,2]thiazinan-2-ylmethyl]-phenyl}-piperazin-1-yl)-ethanone], the pIC50 was 6.62. As to `C[C@H]1CCC(c2ccccc2)S(=O)(=O)N1Cc1ccc(N2CCN(C(=O)C3CC3)CC2)cc1F` (single isomer, unassigned) [Example 59], the pIC50 is 7.82.

Staying with this assay, now noted: read-out: RORc IC50.
With `CCOC(=O)N1CCC(C(=O)Nc2ccc(CN3[C@@H](C)CCC(c4ccccc4)S3(=O)=O)c(F)c2)CC1` (stereo partly drawn) [Example 456, 4-[3-Fluoro-4-((3S)-methyl-1,1-dioxo-6-phenyl-[1,2]thiazinan-2-ylmethyl)-phenylcarbamoyl]-piperidine-1-carboxylic acid ethyl ester], the pIC50 is 6.83. Same read-out and setting: next, `C[C@H]1CCC(c2ccccc2)S(=O)(=O)N1Cc1ccc(N2CCC(n3cnnn3)CC2)cc1` (stereo partly drawn) [Example 422, (3S)-Methyl-6-phenyl-2-[4-(4-tetrazol-1-yl-piperidin-1-yl)-benzyl]-[1,2]thiazinane 1,1-dioxide]: 7.15; `C[C@H]1CCC(c2ccccc2)S(=O)(=O)N1Cc1ccc(N2CCN(c3ncncn3)CC2)cc1F` (stereo partly drawn) [Example 442, 2-{4-[3-Fluoro-4-((3S)-methyl-1,1-dioxo-6-phenyl-[1,2]thiazinan-2-ylmethyl)-phenyl]-piperazin-1-yl}-[1,3,5]triazine]: 7.43. The same measure, in the same setting: with `CC(=O)N1CCN(c2ccc(CN3[C@@H](C)CCC(c4ccccc4)S3(=O)=O)c(F)c2)[C@@H](C(=O)O)C1` (stereo partly drawn) [Example 434, (R)-4-Acetyl-1-[3-fluoro-4-((3S)-methyl-1,1-dioxo-6-phenyl-[1,2]thiazinan-2-ylmethyl)-phenyl]-piperazine-2-carboxylic acid] the figure was 5.95; with `C[C@H]1CCC(c2ccccc2)S(=O)(=O)N1Cc1ccc(N2CCn3c(cnc3CO)C2)cc1F` (stereo partly drawn) [Example 404, {7-[3-Fluoro-4-((3S)-methyl-1,1-dioxo-6-phenyl-[1,2]thiazinan-2-ylmethyl)-phenyl]-5,6,7,8-tetrahydro-imidazo[1,5-a]pyrazin-3-yl}-methanol], 6.30.

The record behind these values is patent US9115101B2 (Genentech, Inc., priority 2012, dated 2015).
